Experimental data: the NIST ThermoML archive (doi:10.1021/je100715x)

Tests used:
[1] = xn = mol fraction of the nth substance listed; conditions: 101 kPa, Liquid; for viscosity: Capillary tube (Ostwald / Ubbelohde) method; for mass density: Vibrating tube method
[2] = refractive index (Na D-line) (dimensionless); xn = mol fraction of the nth substance listed; conditions: 101 kPa, Liquid, Standard Abbe refractometry

CCOC(=O)C(=O)OCC [diethyl ethanedioate] + O=C1CCCCC1
Conditions	mass density, 303.15 K [kg/m3]	mass density, 308.15 K [kg/m3]	mass density, 313.15 K [kg/m3]	refractive index, 303.15 K	refractive index, 308.15 K	refractive index, 313.15 K	viscosity, 303.15 K [mPa·s]	viscosity, 308.15 K [mPa·s]	viscosity, 313.15 K [mPa·s]
[1], x1 = 0.0784	950.2	945.1	940.1	–	–	–	1.777	1.595	1.466
[1], x1 = 0.1495	961	955.8	950.6	–	–	–	1.737	1.556	1.416
[1], x1 = 0.2501	975.4	970.3	964.9	–	–	–	1.682	1.5	1.36
[1], x1 = 0.3443	988.4	983.1	977.7	–	–	–	1.637	1.461	1.325
[1], x1 = 0.4324	1000	994.7	989.2	–	–	–	1.609	1.435	1.304
[1], x1 = 0.5507	1015.1	1009.6	1004	–	–	–	1.584	1.415	1.285
[1], x1 = 0.6755	1030.3	1024.7	1019	–	–	–	1.575	1.404	1.276
[1], x1 = 0.7601	1040.2	1034.5	1028.7	–	–	–	1.581	1.407	1.284
[1], x1 = 0.8756	1053.1	1047.4	1041.4	–	–	–	1.606	1.437	1.329
[1], x1 = 0.9502	1061	1055.3	1049.3	–	–	–	1.62	1.464	1.351
[2], x1 = 0.0784	–	–	–	1.4429	1.4406	1.4388	–	–	–
[2], x1 = 0.1495	–	–	–	1.4399	1.4376	1.4359	–	–	–
[2], x1 = 0.2501	–	–	–	1.4359	1.434	1.4321	–	–	–
[2], x1 = 0.3443	–	–	–	1.4323	1.4307	1.4287	–	–	–
[2], x1 = 0.4324	–	–	–	1.4287	1.4273	1.4252	–	–	–
[2], x1 = 0.5507	–	–	–	1.4239	1.4223	1.4204	–	–	–
[2], x1 = 0.6755	–	–	–	1.4186	1.4168	1.4152	–	–	–
[2], x1 = 0.7601	–	–	–	1.4154	1.4133	1.4116	–	–	–
[2], x1 = 0.8756	–	–	–	1.4108	1.4088	1.4071	–	–	–
[2], x1 = 0.9502	–	–	–	1.4081	1.4059	1.4043	–	–	–
